Read-outs that look alike come from different tables or passages of the source.
Experiments:
Assay type in all cases: cell-based, Candida tropicalis
[1] = system: ΔΔXyl2; conditions: YNB media; for starting xylose attenuated/bioconverted by ΔΔXyl2 with co-substrate: binary mixture of xylose and co-substrate
[2] = system: ΔΔXyl2; conditions: WSH; for starting xylose converted by ΔΔXyl2 with co-substrate: maltose value by 72 hr
[3] = system: Y6604 (NCYC 4190); experiment: Xylose utilisation of Y6604 in the presence of increased inhibitor concentrations; conditions: high or increasing inhibitor concentrations, minimal media, shake flasks
Experimental: FIG. 4 show graphs illustrating xylose utilisation profiles of Y6604 (NCYC 4190) in the presence of increased inhibitor concentrations. Graphs A, B, C, D, E and F represent strain performance in the presence of increasing concentrations of vanillin (VAN), transcinnamic acid (TRANSC), hydroxyl-benzaldehyde (HBA), syringaldehyde (S), furfural (F) and hydroxyl-methyl furfural (HMF) respectively. Indicated values in the legend represent concentrations in mg/100 mL. Xylose values are the mean of two replicates in minimal media in shake flasks;
Strain Y6604 (NCYC 4190) was compared with other xylose-utilizing isolates from the gut of click beetle to assess its inhibitor tolerance and xylose to xylitol conversion. […] Despite slower Y6604 (NCYC 4190) growth in corn stover hydrolysate, xylose consumption and subsequent xylitol production was largely unaffected when compared to other isolates (FIG. 2 A, B) and increased amounts of the sugar alcohol at a comparatively higher rate of production were apparent in hydrolysates obtained from Miscanthus (FIG. 2 C, D) and wheat straw (FIG. 2 E, F). Phylogenetic analysis of the D1/D2 domain confirmed strain identity to be Candida tropiclis (FIG. 3). Having observed the enhanced efficacy of Y6604 (NCYC 4190) in hydrolysates with high inhibitor loadings, the isolate's tolerance threshold to common inhibitors by measuring xylose uptake rates (FIG. 4) was then assessed.

| Molecule | rate of xylose conversion by ΔΔXyl2 with co-substrate [1] | starting xylose converted by ΔΔXyl2 with co-substrate [2] | starting xylose attenuated/bioconverted by ΔΔXyl2 with co-substrate [1] [%] | effect on xylose utilisation/uptake [3] | also measured |
| --- | --- | --- | --- | --- | --- |
| OCC(O)CO [glycerol] | around 0.4 g xylose per hr | around 94% | – | – | – |
| O=C(CO)[C@@H](O)[C@H](O)[C@H](O)CO [fructose] | around 0.4 g xylose per hr | – | 54 | – | – |
| O=Cc1ccc(CO)o1 [HMF, hydroxyl-methyl furfural] | – | – | – | enhance pentose uptake | – |
| COc1cc(C=O)ccc1O [vanillin] | – | – | – | delayed xylose utilisation | – |
| O=Cc1ccco1 [furfural] | – | – | – | completely abolished xylose uptake | – |
| COc1cc(C=O)cc(OC)c1O [syringaldehyde] | – | – | – | delayed xylose utilisation | – |
| O=C(O)/C=C/c1ccccc1 [transcinnamic acid] | – | – | – | delayed xylose utilisation | – |
| hydroxyl-benzaldehyde | – | – | – | delayed xylose utilisation | – |
| O=C[C@H](O)[C@@H](O)[C@@H](O)[C@H](O)CO [galactose] | – | more than 90% | 34 | – | rate of xylose conversion by ΔΔXyl2 with co-substrate [2]: 0.5 g/h; time to complete co-substrate exhaustion [2]: ≤ 7 h; arabitol accumulation with co-substrate ([2]; compared to other potential co-substrates (FIG. 7G)): high amount of arabitol accumulation |
| OC[C@H]1O[C@H](O[C@H]2[C@H](O)[C@@H](O)C(O)O[C@@H]2CO)[C@H](O)[C@@H](O)[C@@H]1O (mixture of isomers) [maltose] | 0.5 g xylose per hr | more than 95% | 70 | – | rate of xylose conversion by ΔΔXyl2 with co-substrate [2]: 0.78 g/h |

Reference: patent US11535872B2, “Microbial strains and uses thereof” (priority 2017, dated 2022)
